Experimental data published in US7517874B2 (priority 2007, dated 2009).

Experiments:
[1] = target: human CB1 receptor (hCB1) (Homo sapiens, UniProt P21554); assay: cell-based; type: cell-based; conditions: for +/− HCB1: agonist or inverse agonist at hCB1
Summary of the method: (§1)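 First, cells in IBMX-containing HEPES-buffered HBSS are raised to elevated cAMP with 2-8 μM NKH-477 for 30 min. Data are normalised to the forskolin and forskolin + 1 μM CP55,940 controls.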

rat CB2 receptor (rCB2) = target: T1, rat CB2 receptor (rCB2) (Rattus norvegicus, UniProt Q9QZN9); assay: cell-based; type: cell-based; conditions: for +/− RCB2: agonist or inverse agonist at rCB2
T1 sequence (Q9QZN9 1-360): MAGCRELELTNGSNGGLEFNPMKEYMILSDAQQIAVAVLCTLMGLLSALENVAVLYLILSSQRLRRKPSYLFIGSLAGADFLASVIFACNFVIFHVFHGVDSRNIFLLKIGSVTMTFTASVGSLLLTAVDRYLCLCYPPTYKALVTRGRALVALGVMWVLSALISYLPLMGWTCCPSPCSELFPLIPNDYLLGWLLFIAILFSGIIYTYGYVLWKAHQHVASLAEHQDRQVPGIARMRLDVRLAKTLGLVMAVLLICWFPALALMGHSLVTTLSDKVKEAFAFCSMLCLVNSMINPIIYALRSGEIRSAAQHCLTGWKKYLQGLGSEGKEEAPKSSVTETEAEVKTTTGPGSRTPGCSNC
Summary of the method: as §1

Sequence of human CB1 receptor (hCB1) (P21554 whole entry): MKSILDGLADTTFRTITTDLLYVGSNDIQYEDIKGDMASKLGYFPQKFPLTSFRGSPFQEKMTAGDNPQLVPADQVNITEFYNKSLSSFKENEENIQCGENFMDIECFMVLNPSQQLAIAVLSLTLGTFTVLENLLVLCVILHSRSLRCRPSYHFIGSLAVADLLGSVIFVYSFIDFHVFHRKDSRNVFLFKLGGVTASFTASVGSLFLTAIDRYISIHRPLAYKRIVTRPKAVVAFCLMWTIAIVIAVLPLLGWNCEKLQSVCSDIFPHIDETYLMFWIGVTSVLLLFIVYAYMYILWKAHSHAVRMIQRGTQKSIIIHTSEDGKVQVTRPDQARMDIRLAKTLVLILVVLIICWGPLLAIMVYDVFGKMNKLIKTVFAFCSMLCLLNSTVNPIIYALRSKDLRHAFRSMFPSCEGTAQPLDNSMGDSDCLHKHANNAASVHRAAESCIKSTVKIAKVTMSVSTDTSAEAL

`CNC(=O)[C@@H](NC(=O)c1nc(-c2ccc(C(N)=O)cc2)n2c1CN(C)CCC2)C(C)(C)C` [Compound 423, (S)-3-(4-carbamoylphenyl)-N-(3,3-dimethyl-1-(methylamino)-1-oxobutan-2-yl)-8-methyl-6,7,8,9-tetrahydro-5H-imidazo[1,5-a][1,4]diazepine-1-carboxamide] was tested, and the EC50 [1] was > 10 µM and the EC50 (rat CB2 receptor (rCB2)) was > 10 µM.

With `CNC(=O)[C@@H](NC(=O)c1nc(-c2cc(F)c(OC)cc2F)n2c1CN(C)CCC2)C(C)(C)C` [Compound 424, (S)-3-(2,5-difluoro-4-methoxyphenyl)-N-(3,3-dimethyl-1-(methylamino)-1-oxobutan-2-yl)-8-methyl-6,7,8,9-tetrahydro-5H-imidazo[1,5-a][1,4]diazepine-1-carboxamide] the EC50 [1] was > 10 µM and the “+/− RCB2” value (rat CB2 receptor (rCB2)) was “+”.

For `CNC(=O)[C@@H](NC(=O)c1nc(-c2ccc(F)c(C#N)c2)n2c1CN(C)CCC2)C(C)(C)C` [Compound 425, (S)-3-(3-cyano-4-fluorophenyl)-N-(3,3-dimethyl-1-(methylamino)-1-oxobutan-2-yl)-8-methyl-6,7,8,9-tetrahydro-5H-imidazo[1,5-a][1,4]diazepine-1-carboxamide], the EC50 [1] was > 10 µM and the “+/− RCB2” value (rat CB2 receptor (rCB2)) was “+”.

`CNC(=O)[C@@H](NC(=O)c1nc(-c2ccc(C(=O)N(C)C)c(F)c2)n2c1CN(C)CCC2)C(C)(C)C` [Compound 426, (S)-N-(3,3-dimethyl-1-(methylamino)-1-oxobutan-2-yl)-3-(4-(dimethylcarbamoyl)-3-fluorophenyl)-8-methyl-6,7,8,9-tetrahydro-5H-imidazo[1,5-a][1,4]diazepine-1-carboxamide] was tested, and the EC50 [1] was > 10 µM and the EC50 (rat CB2 receptor (rCB2)) was > 10 µM.

For `CNC(=O)[C@@H](NC(=O)c1nc(-c2ccc(C(N)=O)c(F)c2)n2c1CN(C)CCC2)C(C)(C)C` [Compound 427, (S)-3-(4-carbamoyl-3-fluorophenyl)-N-(3,3-dimethyl-1-(methylamino)-1-oxobutan-2-yl)-8-methyl-6,7,8,9-tetrahydro-5H-imidazo[1,5-a][1,4]diazepine-1-carboxamide], the EC50 [1] was > 10 µM and the EC50 (rat CB2 receptor (rCB2)) was > 10 µM.

For `CNC(=O)[C@@H](NC(=O)c1nc(-c2ccc(C3CC(=O)NN3)cc2)n2c1CN(C)CCC2)C(C)(C)C` (stereo partly drawn) [Compound 428, N-((S)-3,3-dimethyl-1-(methylamino)-1-oxobutan-2-yl)-8-methyl-3-(4-(5-oxopyrazolidin-3-yl)phenyl)-6,7,8,9-tetrahydro-5H-imidazo[1,5-a][1,4]diazepine-1-carboxamide], the EC50 [1] was > 10 µM and the EC50 (rat CB2 receptor (rCB2)) was > 10 µM.

For `CNC(=O)[C@@H](NC(=O)c1nc(-c2ccc(F)c(C(N)=O)c2)n2c1CN(C)CCC2)C(C)(C)C` [Compound 429, (S)-3-(3-carbamoyl-4-fluorophenyl)-N-(3,3-dimethyl-1-(methylamino)-1-oxobutan-2-yl)-8-methyl-6,7,8,9-tetrahydro-5H-imidazo[1,5-a][1,4]diazepine-1-carboxamide], the EC50 [1] was > 10 µM and the “+/− RCB2” value (rat CB2 receptor (rCB2)) was “+”.

`C=Cc1nc(C(=O)N[C@H](C(=O)NC)C(C)(C)C)c2n1CCCN(C)C2` [Compound 430, (S)-N-(3,3-dimethyl-1-(methylamino)-1-oxobutan-2-yl)-8-methyl-3-vinyl-6,7,8,9-tetrahydro-5H-imidazo[1,5-a][1,4]diazepine-1-carboxamide] was tested, and the EC50 [1] was > 10 µM and the “+/− RCB2” value (rat CB2 receptor (rCB2)) was “+”.

`CNC(=O)[C@@H](NC(=O)c1nc(-c2ccccc2C(N)=O)n2c1CN(C)CCC2)C(C)(C)C` [Compound 431, (S)-3-(2-carbamoylphenyl)-N-(3,3-dimethyl-1-(methylamino)-1-oxobutan-2-yl)-8-methyl-6,7,8,9-tetrahydro-5H-imidazo[1,5-a][1,4]diazepine-1-carboxamide] was tested, and the EC50 [1] was > 10 µM and the EC50 (rat CB2 receptor (rCB2)) was > 10 µM.

For `CNC(=O)[C@@H](NC(=O)c1nc(-c2cn[nH]c2)n2c1CN(C)CCC2)C(C)(C)C` [Compound 432, (S)-N-(3,3-dimethyl-1-(methylamino)-1-oxobutan-2-yl)-8-methyl-3-(1H-pyrazol-4-yl)-6,7,8,9-tetrahydro-5H-imidazo[1,5-a][1,4]diazepine-1-carboxamide], the EC50 [1] was > 10 µM and the “+/− RCB2” value (rat CB2 receptor (rCB2)) was “+”.

`CNC(=O)[C@@H](NC(=O)c1nc(-c2cccc(Cl)c2)n2c1CN(C)CCC2)C(C)(C)C` [Compound 433, (S)-3-(3-chlorophenyl)-N-(3,3-dimethyl-1-(methylamino)-1-oxobutan-2-yl)-8-methyl-6,7,8,9-tetrahydro-5H-imidazo[1,5-a][1,4]diazepine-1-carboxamide] was tested, and the EC50 [1] was > 10 µM and the EC50 (rat CB2 receptor (rCB2)) was > 10 µM.

For `CCC/C=C/c1nc(C(=O)N[C@H](C(=O)NC)C(C)(C)C)c2n1CCCN(C)C2` [Compound 434, (S,E)-N-(3,3-dimethyl-1-(methylamino)-1-oxobutan-2-yl)-8-methyl-3-(pent-1-enyl)-6,7,8,9-tetrahydro-5H-imidazo[1,5-a][1,4]diazepine-1-carboxamide], the EC50 [1] was > 10 µM and the “+/− RCB2” value (rat CB2 receptor (rCB2)) was “+”.

`CNC(=O)[C@@H](NC(=O)c1nc(C2CC2)n2c1CN(C)CCC2)C(C)(C)C` [Compound 435, (S)-3-cyclopropyl-N-(3,3-dimethyl-1-(methylamino)-1-oxobutan-2-yl)-8-methyl-6,7,8,9-tetrahydro-5H-imidazo[1,5-a][1,4]diazepine-1-carboxamide] was tested, and the EC50 [1] was > 10 µM and the “+/− RCB2” value (rat CB2 receptor (rCB2)) was “+”.

In the case of `CNC(=O)[C@@H](NC(=O)c1nc(/C=C/C2CC2)n2c1CN(C)CCC2)C(C)(C)C` [Compound 436, (S,E)-3-(2-cyclopropylvinyl)-N-(3,3-dimethyl-1-(methylamino)-1-oxobutan-2-yl)-8-methyl-6,7,8,9-tetrahydro-5H-imidazo[1,5-a][1,4]diazepine-1-carboxamide], the “+/− HCB1” value [1] is reported as “+” and the “+/− RCB2” value (rat CB2 receptor (rCB2)) is reported as “+”.

For `CNC(=O)[C@@H](NC(=O)c1nc(-c2ccc(F)cc2)n2c1CN(C)CCC2)C(C)(C)C` [Compound 437, (S)-N-(3,3-dimethyl-1-(methylamino)-1-oxobutan-2-yl)-3-(4-fluorophenyl)-8-methyl-6,7,8,9-tetrahydro-5H-imidazo[1,5-a][1,4]diazepine-1-carboxamide], the EC50 [1] was > 10 µM and the EC50 (rat CB2 receptor (rCB2)) was > 10 µM.

`CNC(=O)[C@@H](NC(=O)c1nc(-c2cccc(C(F)(F)F)c2)n2c1CN(C)CCC2)C(C)(C)C` [Compound 438, (S)-N-(3,3-dimethyl-1-(methylamino)-1-oxobutan-2-yl)-8-methyl-3-(3-(trifluoromethyl)phenyl)-6,7,8,9-tetrahydro-5H-imidazo[1,5-a][1,4]diazepine-1-carboxamide] was tested, and the EC50 [1] was > 10 µM and the “+/− RCB2” value (rat CB2 receptor (rCB2)) was “−”.

In the case of `CNC(=O)[C@@H](NC(=O)c1nc(/C=C/C2CCCCC2)n2c1CN(C)CCC2)C(C)(C)C` [Compound 439], the EC50 [1] is reported as > 10 µM and the “+/− RCB2” value (rat CB2 receptor (rCB2)) is reported as “+”.

For `CNC(=O)[C@@H](NC(=O)c1nc(-c2ccoc2)n2c1CN(C)CCC2)C(C)(C)C` [Compound 440, (S)-N-(3,3-dimethyl-1-(methylamino)-1-oxobutan-2-yl)-3-(furan-3-yl)-8-methyl-6,7,8,9-tetrahydro-5H-imidazo[1,5-a][1,4]diazepine-1-carboxamide], the EC50 [1] was > 10 µM and the “+/− RCB2” value (rat CB2 receptor (rCB2)) was “+”.

For `C=C(C)c1nc(C(=O)N[C@H](C(=O)NC)C(C)(C)C)c2n1CCCN(C)C2` [Compound 441, (S)-N-(3,3-dimethyl-1-(methylamino)-1-oxobutan-2-yl)-8-methyl-3-(prop-1-en-2-yl)-6,7,8,9-tetrahydro-5H-imidazo[1,5-a][1,4]diazepine-1-carboxamide], the “+/− HCB1” value [1] was “+” and the “+/− RCB2” value (rat CB2 receptor (rCB2)) was “+”.

`CNC(=O)[C@@H](NC(=O)c1nc(-c2c(C)noc2C)n2c1CN(C)CCC2)C(C)(C)C` [Compound 442, N-((S)-3,3-dimethyl-1-(methylamino)-1-oxobutan-2-yl)-3-(3,5-dimethylisoxazol-4-yl)-8-methyl-6,7,8,9-tetrahydro-5H-imidazo[1,5-a][1,4]diazepine-1-carboxamide] was tested, and the “+/− HCB1” value [1] was “+” and the “+/− RCB2” value (rat CB2 receptor (rCB2)) was “+”.

`CNC(=O)[C@@H](NC(=O)c1nc(-c2ccc(C)o2)n2c1CN(C)CCC2)C(C)(C)C` [Compound 443, (S)-N-(3,3-dimethyl-1-(methylamino)-1-oxobutan-2-yl)-8-methyl-3-(5-methylfuran-2-yl)-6,7,8,9-tetrahydro-5H-imidazo[1,5-a][1,4]diazepine-1-carboxamide] was tested, and the EC50 [1] was > 10 µM and the “+/− RCB2” value (rat CB2 receptor (rCB2)) was “−”.

`CNC(=O)[C@@H](NC(=O)c1nc(-c2cccc3cccnc23)n2c1CN(C)CCC2)C(C)(C)C` [Compound 444] was tested, and the EC50 [1] was > 10 µM and the “+/− RCB2” value (rat CB2 receptor (rCB2)) was “−”.

In the case of `CNC(=O)[C@@H](NC(=O)c1nc(/C=C/CC2CCCC2)n2c1CN(C)CCC2)C(C)(C)C` [Compound 445, (S,E)-3-(3-cyclopentylprop-1-enyl)-N-(3,3-dimethyl-1-(methylamino)-1-oxobutan-2-yl)-8-methyl-6,7,8,9-tetrahydro-5H-imidazo[1,5-a][1,4]diazepine-1-carboxamide], the EC50 [1] is reported as > 10 µM and the “+/− RCB2” value (rat CB2 receptor (rCB2)) is reported as “−”.

`CNC(=O)[C@@H](NC(=O)c1nc(/C=C/c2ccsc2)n2c1CN(C)CCC2)C(C)(C)C` [Compound 446] was tested, and the EC50 [1] was > 10 µM and the “+/− RCB2” value (rat CB2 receptor (rCB2)) was “+”.

`CNC(=O)[C@@H](NC(=O)c1nc(-c2cnn(C)c2)n2c1CN(C)CCC2)C(C)(C)C` [Compound 447, (S)-N-(3,3-dimethyl-1-(methylamino)-1-oxobutan-2-yl)-8-methyl-3-(1-methyl-1H-pyrazol-4-yl)-6,7,8,9-tetrahydro-5H-imidazo[1,5-a][1,4]diazepine-1-carboxamide] was tested, and the “+/− HCB1” value [1] was “+” and the “+/− RCB2” value (rat CB2 receptor (rCB2)) was “+”.
